# Laboratory results taken from US20160222014A1, “COMPOUNDS FOR REGULATING FAK AND/OR SRC PATHWAYS” (ASANA BIOSCIENCES, LLC, priority 2013, published 2016).
# Target: T1, recombinant human FAK1 (Homo sapiens, UniProt Q05397)
# T1 construct: fused on or other part: N-terminal 6xHis tag
# Assay: FAK1 HTRF assay
# Assay type: biochemical
# Method in brief: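 His-tagged human FAK1 (residues 692–end, Sf9-expressed), 10 nM final, with 0.5 μM biotinylated gastrin-precursor Tyr87 peptide and a 10 μM final reagent in pH 7.4 buffer, 45 min at rt. Detection used Eu anti-pTyr antibody plus SA-APC (665/620 nm). Compounds top concentration 10 μM; IC50 from % inhibition.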
# T1 sequence (Q05397 422-680 limits assumed): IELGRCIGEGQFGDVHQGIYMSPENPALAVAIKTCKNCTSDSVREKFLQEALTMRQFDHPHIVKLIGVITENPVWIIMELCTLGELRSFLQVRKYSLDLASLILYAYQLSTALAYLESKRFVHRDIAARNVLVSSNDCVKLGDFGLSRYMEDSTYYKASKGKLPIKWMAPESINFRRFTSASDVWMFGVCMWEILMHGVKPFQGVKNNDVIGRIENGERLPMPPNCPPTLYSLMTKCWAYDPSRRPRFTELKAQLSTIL
row,SMILES,IC50
1,CN(c1ncccc1Cn1ncc2cnc(Nc3ccc4[nH]c(=O)[nH]c4c3)cc21)S(C)(=O)=O [Example 142],< 20 nM
2,O=C1CCc2cc(Nc3ncc4ccn(S(=O)(=O)c5cccc6cccnc56)c4n3)ccc2N1 [Example 169],< 20 nM
3,O=C1CCc2cc(Nc3ncc4ccn(Cc5cccnc5N5CCCS5(=O)=O)c4n3)ccc2N1 [Example 216],< 20 nM
4,O=S(=O)(c1cccc2nsnc12)n1ccc2cnc(Nc3ccc(N4CCNCC4)cc3)nc21 [Example 253],< 20 nM
5,Cn1cc(Nc2ncc3ccn(S(=O)(=O)c4cccc5cccnc45)c3n2)cn1 [Example 318],< 20 nM
6,"COc1cc(N2CCNCC2)ccc1Nc1cc2c(ccn2S(=O)(=O)c2cccc3cccnc23)cn1 [Example 330, N-(2-Methoxy-4-(piperazin-1-yl)phenyl)-1-(quinolin-8-ylsulfonyl)-1H-pyrrolo[3,2-c]pyridin-6-amine]",< 20 nM
7,Cc1cc(Nc2ncc3cnn(S(=O)(=O)c4cccc5cccnc45)c3n2)ccc1N1CCNCC1 [Example 332],< 20 nM
8,CN(c1ncccc1Cn1ccc2cnc(Nc3ccc(N4CCCC4CO)cc3)nc21)S(C)(=O)=O (centres unmarked) [Example 536],< 20 nM
